Data published in patent US20150368617A1, “METHOD FOR FORMING ENDOTHELIAL CELLS” (Korea Advanced Institute of Science and Technology (KAIST), priority 2012, published 2015).

System: ESC
Assay: Estimation of number of ECs generated from one ESC in the 2D Matrigel system
Format: cell-based, mouse
Details: day 8.5
Description: FIG. 16. Estimation and comparison of number of ECs generated from one ESC grown with indicated agents in the 2D Matrigel system at day 6.5 and 8.5. Estimation was calculated from 5 independent incubations.
To maximize the amount of ECs obtained from ESC, we expanded the ICAM2+ ECs for 2 days using the same culture system with VEGF-A and Y27632 (FIG. 14A). When the ECs were grown for 2 days without either VEGF-A or Y27632, the population of CD31+/CD144+ ECs underwent a decrease of ˜30% from the initial population of ˜90% (FIG. 14B-D). […] This way, we were further able to obtain ˜4.2-fold expansion of CD31+/CD144+ ECs from the ICAM2+ ECs (FIGS. 14B-F) In the presence of VEGF-A, Y27632 promoted the adhesion of ICAM2+ ECs onto the plate by 1.3-fold at 6 hrs after plating (FIG. 14G). In these purified ECs, Y27632 and VEGF-A each promoted the proliferation of ECs to a similar level, and combination of Y27632 and VEGF-A promoted EC proliferation to a greater degree. […] Based on these findings, we conclude that further expansion of high purity ECs (>90%) could be achieved from ESC by combination of simultaneous ROCK suppression and VEGF-stimulation—these high purity ECs are hereafter referred to as “VEGF-A plus Y27632-induced and anti-ICAM2 antibody-sorted ECs (VYI-ECs)” (FIG. 14A). […]

C[C@@H](N)[C@H]1CC[C@H](C(=O)Nc2ccncc2)CC1 [Y27632]
number of ECs generated from one ESC (from ˜73 Flk1+ MPCs): ~36
